The results in this text go back to patent publication US20250127906A1, “SMALL-MOLECULE DEGRADERS OF CDK8 AND CDK19” (University of South Carolina, priority 2021, published 2025).

Marks after values point to notes of the source that are not given here.

Assay [1] concerns the target CDK8 (Homo sapiens, UniProt P49336). Briefly: CDK8 degradation in HEK-293 cells (Western blot, normalized by GAPDH). As to conditions: for % CDK8 remaining: 24 hours; for induction of CDK8 degradation by single agents: HEK-293, HP8580 200 nM and 1 μM, pomalidomide 5 μM, Senexin C 5 μM. It is filed as cell-based. On the set-up: endogenous in cells; host or cells: HEK-293. The procedure: Table 1 presents the structures of 35 different chimeras that have been synthesized, together with their effects (at 1 μM or 0.3 μM concentrations) on CDK8 degradation in HEK-293 cells. The synthesis schemes of all the compounds are described below. CDK8 degradation was measured by Western blot analysis of RIPA lysates of HEK-293cells treated with or without the test compound for 24 hours, using antibodies against CDK8 (Santa Cruz sc-1521) and housekeeping protein GAPDH (Santa Cruz sc-32233) (loading control) Protein bands on immunoblotted PVDF membranes were visualized with Western Lighting Plus ECL detection reagent (Perkin Elmer, Waltham, MA, USA) using ChemiDoc Touch™ (Bio-Rad). Image processing and densitometry analysis were performed using ImageLab software (Bio-Rad) to quantify the CDK8 protein levels (normalized by GAPDH) and evaluate the effects of compound treatment.
FIGS. 2F and 2G show the effects of different concentrations of potent Senexin C- and BI-1347-based PROTACs on CDK8 and CDK19 degradation in HEK-293cells. Based on these assays, we calculated DC50 values that correspond to PROTAC concentrations inducing degradation of CDK8 and CDK19 to the half of protein level in untreated cells. The corresponding CDK8 DC50 values were 46 nM for IA7843, 6.6 nM for IA7882 and 2.8 nM for IA7886, and CDK19 DC50 values were 1 μM for IA7843, 25 nM for IA7882 and 10 nM for IA7886.

Assay [2] has as its system SK-MM-2 cells. Briefly: SK-MM-2 multiple myeloma cell growth over 20 days continuous treatment. The class given is cell-based. Particulars: BI1347 200 nM, Senexin C 1 μM, IA7886 200 nM, IA7843 1 μM. Here is the method:
The following CDK8/19 kinase inhibitors were tested for their effects on MM cell lines over 20 days continuous treatment: CDK8/19 kinase inhibitors BI1347 (200 nM) and Senexin C (1 μM), BI1347-derived PROTAC IA7886 (200 nM) and Senexin C-derived PROTAC IA7843 (1 μM). 1-4 million cells were treated with vehicle control (0.1% DMSO), or CDK8/19 kinase inhibitors or PROTACs for 20 days. Every 4 days, cells were counted using BioRAD TC20 Automated Cell Counter with trypan blue staining, and the same number of cells were passaged to a new T25 flask to propagate under the same treatment conditions.

Setting [3] is: HEK-293 cells, tested at 0.3 μM (marked *).

Sequence of CDK8 (P49336 whole entry): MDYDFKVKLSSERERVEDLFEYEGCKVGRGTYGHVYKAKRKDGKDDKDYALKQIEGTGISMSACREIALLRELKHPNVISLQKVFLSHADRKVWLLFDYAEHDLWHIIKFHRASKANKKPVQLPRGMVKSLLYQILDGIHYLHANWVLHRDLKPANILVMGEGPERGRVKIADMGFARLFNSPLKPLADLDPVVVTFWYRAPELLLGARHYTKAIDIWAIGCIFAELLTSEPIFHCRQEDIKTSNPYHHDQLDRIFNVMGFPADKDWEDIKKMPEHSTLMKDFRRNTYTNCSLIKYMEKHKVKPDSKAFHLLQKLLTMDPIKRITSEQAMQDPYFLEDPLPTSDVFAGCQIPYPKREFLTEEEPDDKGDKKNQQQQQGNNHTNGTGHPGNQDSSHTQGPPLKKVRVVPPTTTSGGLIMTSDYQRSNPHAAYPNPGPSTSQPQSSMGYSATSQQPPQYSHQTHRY
Sequence of CDK8 (P24863 whole entry partner): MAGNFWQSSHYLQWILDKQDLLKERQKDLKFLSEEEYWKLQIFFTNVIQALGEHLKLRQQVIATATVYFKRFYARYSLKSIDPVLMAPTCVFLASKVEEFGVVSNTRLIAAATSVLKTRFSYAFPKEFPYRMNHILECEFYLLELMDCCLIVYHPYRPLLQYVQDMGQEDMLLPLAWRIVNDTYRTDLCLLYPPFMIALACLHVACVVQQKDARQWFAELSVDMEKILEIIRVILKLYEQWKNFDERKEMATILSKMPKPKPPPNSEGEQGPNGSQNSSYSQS

On to `N#Cc1ccc2nccc(NCCc3ccc4cc(C(=O)N5CCN(C(=O)CCCCCCCCNC(=O)CCOCCNc6cccc7c6C(=O)N(C6CCC(=O)NC6=O)C7=O)CC5)ccc4c3)c2c1` (stereo not shown) [IA7835, N-[9-[4-[6-[2-[(6-cyano-4-quinolyl)amino]ethyl]naphthalene-2-carbonyl]piperazin-1-yl]-9-oxo-nonyl]-3-[2-[[2-(2,6-dioxo-3-piperidyl)-1,3-dioxo-isoindolin-4-yl]amino]ethoxy]propanamide], for which the “% CDK8 remaining” value in assay [1] (HEK-293 cells, tested at 1 μM) is recorded as 45%. Regarding `N#Cc1ccc2nccc(NCCc3ccc4cc(C(=O)N5CCN(C(=O)CCCCCCCCC(=O)NCCCCCNc6cccc7c6C(=O)N(C6CCC(=O)NC6=O)C7=O)CC5)ccc4c3)c2c1` (stereo not shown) [IA7840, 10-[4-[6-[2-[(6-cyano-4-quinolyl)amino]ethyl]naphthalene-2-carbonyl]piperazin-1-yl]-N-[5-[[2-(2,6-dioxo-3-piperidyl)-1,3-dioxo-isoindolin-4-yl]amino]pentyl]-10-oxo-decanamide], in assay [1] (HEK-293 cells, tested at 1 μM), the “% CDK8 remaining” value is 55%. `N#Cc1ccc2nccc(NCCc3ccc4cc(C(=O)N5CCN(C(=O)CCCCCCCCCCCNC(=O)CCNc6cccc7c6C(=O)N(C6CCC(=O)NC6=O)C7=O)CC5)ccc4c3)c2c1` (stereo not shown) [IA7848, N-[12-[4-[6-[2-[(6-cyano-4-quinolyl)amino]ethyl]naphthalene-2-carbonyl]piperazin-1-yl]-12-oxo-dodecyl]-3-[[2-(2,6-dioxo-3-piperidyl)-1,3-dioxo-isoindolin-4-yl]amino]propanamide]: in assay [1] (HEK-293 cells, tested at 1 μM), the “% CDK8 remaining” value worked out at 31%. In the case of `N#Cc1ccc2nccc(NCCc3ccc4cc(C(=O)N5CCN(C(=O)CCCCCCCCNC(=O)CCCCNc6cccc7c6C(=O)N(C6CCC(=O)NC6=O)C7=O)CC5)ccc4c3)c2c1` (stereo not shown) [IA7858, N-[9-[4-[6-[2-[(6-cyano-4-quinolyl)amino]ethyl]naphthalene-2-carbonyl]piperazin-1-yl]-9-oxo-nonyl]-5-[[2-(2,6-dioxo-3-piperidyl)-1,3-dioxo-isoindolin-4-yl]amino]pentanamide], the “% CDK8 remaining” value in assay [1] (HEK-293 cells, tested at 1 μM) is recorded as 21%. `N#Cc1ccc2nccc(NCCc3ccc4cc(C(=O)N5CCN(C(=O)CCCCCCCCCNC(=O)CCCCCNc6cccc7c6C(=O)N(C6CCC(=O)NC6=O)C7=O)CC5)ccc4c3)c2c1` (stereo not shown) [IA7859, N-[10-[4-[6-[2-[(6-cyano-4-quinolyl)amino]ethyl]naphthalene-2-carbonyl]piperazin-1-yl]-10-oxo-decyl]-6-[[2-(2,6-dioxo-3-piperidyl)-1,3-dioxo-isoindolin-4-yl]amino]hexanamide]: the “% CDK8 remaining” value in assay [1] (HEK-293 cells, tested at 1 μM) was found to be 81%. Take `N#Cc1ccc2nccc(NCCc3ccc4cc(C(=O)N5CCN(C(=O)CCCCCCCCNC(=O)CCCCCNc6cccc7c6C(=O)N(C6CCC(=O)NC6=O)C7=O)CC5)ccc4c3)c2c1` (stereo not shown) [IA7860, N-[9-[4-[6-[2-[(6-cyano-4-quinolyl)amino]ethyl]naphthalene-2-carbonyl]piperazin-1-yl]-9-oxo-nonyl]-6-[[2-(2,6-dioxo-3-piperidyl)-1,3-dioxo-isoindolin-4-yl]amino]hexanamide]: in assay [1] (HEK-293 cells, tested at 1 μM), the “% CDK8 remaining” value amounted to 95%. Take `N#Cc1ccc2nccc(NCCc3ccc4cc(C(=O)N5CCN(C(=O)CCCCCCCCCNC(=O)CCCCNc6cccc7c6C(=O)N(C6CCC(=O)NC6=O)C7=O)CC5)ccc4c3)c2c1` (stereo not shown) [IA7861, N-[10-[4-[6-[2-[(6-cyano-4-quinolyl)amino]ethyl]naphthalene-2-carbonyl]piperazin-1-yl]-10-oxo-decyl]-5-[[2-(2,6-dioxo-3-piperidyl)-1,3-dioxo-isoindolin-4-yl]amino]pentanamide]: the “% CDK8 remaining” value in assay [1] (HEK-293 cells, tested at 1 μM) stood at 19%. On to `N#Cc1ccc2nccc(NCCc3ccc4cc(C(=O)N5CCN(C(=O)CCCCCCCCCCNC(=O)CCCNc6ccc7c(c6)C(=O)N(C6CCC(=O)NC6=O)C7=O)CC5)ccc4c3)c2c1` (stereo not shown) [IA7868, N-[11-[4-[6-[2-[(6-cyano-4-quinolyl)amino]ethyl]naphthalene-2-carbonyl]piperazin-1-yl]-11-oxo-undecyl]-4-[[2-(2,6-dioxo-3-piperidyl)-1,3-dioxo-isoindolin-5-yl]amino]butanamide], for which the “% CDK8 remaining” value in assay [1] (HEK-293 cells, tested at 1 μM) was 39%. Consider `N#Cc1ccc2nccc(NCCc3ccc4cc(C(=O)N5CCN(C(=O)CCCCCCCCCCNC(=O)CCCNc6cccc7c6CN(C6CCC(=O)NC6=O)C7=O)CC5)ccc4c3)c2c1` (stereo not shown) [IA7869, N-[11-[4-[6-[2-[(6-cyano-4-quinolyl)amino]ethyl]naphthalene-2-carbonyl]piperazin-1-yl]-11-oxo-undecyl]-4-[[2-(2,6-dioxo-3-piperidyl)-1-oxo-isoindolin-4-yl]amino]butanamide], for which the “% CDK8 remaining” value in assay [1] (HEK-293 cells, tested at 1 μM) was determined as 43%.

With `N#Cc1ccc2nccc(NCCc3ccc4cc(C(=O)N5CCN(C(=O)CCCCCCCCCNC(=O)COc6ccc7c(c6)CCCN7C(=O)CCl)CC5)ccc4c3)c2c1` [IA7875, 2-[[1-(2-chloroacetyl)-3,4-dihydro-2H-quinolin-6-yl]oxy]-N-[10-[4-[6-[2-[(6-cyano-4-quinolyl)amino]ethyl]naphthalene-2-carbonyl]piperazin-1-yl]-10-oxo-decyl]acetamide], the “% CDK8 remaining” value in assay [1] (HEK-293 cells, tested at 1 μM) came out at 100%.

In the case of `O=C(Cn1cc(-c2ccc(-c3cncc4ccccc34)cc2)cn1)NCCOCCOCCOCCOCCNc1cccc2c1C(=O)N(C1CCC(=O)NC1=O)C2=O` (stereo not shown) [IA7891, N-[2-[2-[2-[2-[2-[[2-(2,6-dioxo-3-piperidyl)-1,3-dioxo-isoindolin-4-yl]amino]ethoxy]ethoxy]ethoxy]ethoxy]ethyl]-2-[4-[4-(4-isoquinolyl)phenyl]pyrazol-1-yl]acetamide], the “% CDK8 remaining” value in assay [1] (HEK-293 cells, tested at 1 μM) stood at 100%. Still for that read-out and setting: the result for `NC(=O)c1sc2nccc(N3CCCN(c4ccc(C(=O)N5CCN(C(=O)CCOCCOCCOCCOCCNc6cccc7c6C(=O)N(C6CCC(=O)NC6=O)C7=O)CC5)cc4)CC3)c2c1N` (stereo not shown) [IA7892, 3-amino-4-[4-[4-[4-[3-[2-[2-[2-[2-[[2-(2,6-dioxo-3-piperidyl)-1,3-dioxo-isoindolin-4-yl]amino]ethoxy]ethoxy]ethoxy]ethoxy]propanoyl]piperazine-1-carbonyl]phenyl]-1,4-diazepan-1-yl]thieno[2,3-b]pyridine-2-carboxamide] reads 41%. For the molecule `CC(C)(C)C(=O)OCN1C(=O)CCC(N2C(=O)c3cccc(NCCCC(=O)NCCCCCCCCCCC(=O)N4CCN(C(=O)Cn5cc(-c6ccc(-c7cncc8ccccc78)cc6)cn5)CC4)c3C2=O)C1=O` (stereo not shown) [IA7893, (3-(4-((4-((11-(4-(2-(4-(4-(isoquinolin-4-yl)phenyl)-1H-pyrazol-1-yl)acetyl)piperazin-1-yl)-11-oxoundecyl)amino)-4-oxobutyl)amino)-1,3-dioxoisoindolin-2-yl)-2,6-dioxopiperidin-1-yl)methyl pivalate], in assay [1] (setting [3]), the “% CDK8 remaining” value is recorded as 9%*. For the same molecule, the “CDK8 degradation (in words)” value in assay [1] (HEK-293 cells, Western blot) is given as “highly potent degrader”.

In the case of `O=C1CCC(N2C(=O)c3cccc(NCCOCCOCCOCCC(=O)N4CCN(C(=O)Cn5cc(-c6ccc(-c7cncc8ccccc78)cc6)cn5)CC4)c3C2=O)C(=O)N1` (stereo not shown) [IA7894, 2-(2,6-dioxopiperidin-3-yl)-4-((2-(2-(2-(3-(4-(2-(4-(4-(isoquinolin-4-yl)phenyl)-1H-pyrazol-1-yl)acetyl)piperazin-1-yl)-3-oxopropoxy)ethoxy)ethoxy)ethyl)amino) isoindoline-1,3-dione], in assay [1] (setting [3]), the “% CDK8 remaining” value is 51%*. As for `O=C1CCC(N2C(=O)c3cccc(NCCCCC(=O)N4CCN(C(=O)Cn5cc(-c6ccc(-c7cncc8ccccc78)cc6)cn5)CC4)c3C2=O)C(=O)N1` (stereo not shown) [IA7895, 2-(2,6-dioxopiperidin-3-yl)-4-((5-(4-(2-(4-(4-(isoquinolin-4-yl)phenyl)-1H-pyrazol-1-yl)acetyl)piperazin-1-yl)-5-oxopentyl)amino) isoindoline-1,3-dione], in assay [1] (setting [3]), the “% CDK8 remaining” value worked out at 70%*.

Regarding `CN1CCN(C(=O)c2ccc3cc(CCNc4ccnc5ccc(C#N)cc45)ccc3c2)CC1` [Senexin C, reference compound], in assay [2], the “growth inhibition over 20 days, order of efficacy” value is reported as “BI1347<IA7886<Senexin C<IA7843”. The “induction of CDK8 degradation by single agents” value in assay [1] is “but not pomalidomide or Senexin C induced CDK8 degradation”. In the case of `Nc1cccc2c1C(=O)N(C1CCC(=O)NC1=O)C2=O` (stereo not shown) [pomalidomide, reference compound], in assay [1], the “induction of CDK8 degradation by single agents” value is listed as “but not pomalidomide or Senexin C induced CDK8 degradation”.
